Ends that are not written are not given here. Peptide text beside a SMILES is read from it. * marks the point of attachment. MTS‑TFMD = trifluoromethyl phenyl diazirine photocrosslinker tag, disulfide-linked to Cys via MTS; X1 = FC(F)(F)C1(c2ccc(CS*)cc2)N=N1; X2 = CC1(CCS*)N=N1

T1 sequence (Q07820 whole entry): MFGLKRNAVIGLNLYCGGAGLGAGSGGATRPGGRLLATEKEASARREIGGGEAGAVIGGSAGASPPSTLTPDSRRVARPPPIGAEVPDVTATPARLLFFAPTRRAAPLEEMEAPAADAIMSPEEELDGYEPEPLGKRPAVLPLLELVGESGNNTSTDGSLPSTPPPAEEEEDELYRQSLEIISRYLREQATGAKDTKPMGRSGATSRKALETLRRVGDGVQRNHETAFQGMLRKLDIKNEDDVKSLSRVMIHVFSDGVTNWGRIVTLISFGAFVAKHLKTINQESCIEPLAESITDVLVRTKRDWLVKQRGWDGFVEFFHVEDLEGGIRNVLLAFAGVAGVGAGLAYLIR

The first assay concerns the target T1, MCL-1 (Homo sapiens, UniProt Q07820).
T1 construct: made in house
The assay can be described thus: Photo-crosslinking of labelled BID80-102 peptides to MCL-1, SDS-PAGE band intensity. As to conditions: 20 μM labelled peptide + 20 μM MCL-1, TBS pH 7.6; 365 nm UV LED, 1 min; SDS-PAGE band intensity of crosslinked vs non-crosslinked MCL-1; value ± SD of three repeats. The procedure: Cross-linking experiments
For all irradiation methods, samples were prepared in the following way. For crosslinking of MCL-1/BID80-102, 20 μL of a solution containing MTS-diazirine or MTS-TFMD labelled BID80-102 peptide (20 μM) and MCL-1 (20 μM) in buffer 50 mM Tris-HCl, 150 mM NaCl (TBS) pH 7.6 was prepared. […]
This was then placed under a covered LF-206.LS 6 W 365 nm lamp (Uvitec) at a distance of 12 mm from the source for different times up to 30 min. For UV LED chip experiments, acrylic chip chambers were washed with TBS pH 7.6 buffer and 33 µL of sample was added. These were then clamped into the chip holder and irradiated with the 365 nm LED for up to 30 s. A pipette was used to remove the sample from the chip via the lower filling hole. For UV LED tube experiments, 30-130 µL of sample was added to a thin-walled PCR tube and placed inside a 0.5 mL microfuge tube which itself was in a 1.5 mL microfuge tube that had been wrapped in aluminium foil (to reflect the UV irradiation within the containers). Samples were irradiated with the 365 nm LED for 30 s. To crosslink MCL-1 BID80-102, samples were irradiated using this apparatus for 1 min.
Separation and enrichment of cross-linked products
To separate and/or enrich crosslinked samples three methods were used as described in the main text.
Table S1: Affinity (EC50) of labelled BID80-102 peptides to MCL-1 as determined by competition fluorescence anisotropy assay. Crosslinking efficiency of labelled BID80-102 peptides to MCL-1 based on the SDS-PAGE band intensity of crosslinked and non-crosslinked […]
The values and standard deviations are results of three repeats. n.d = not determined as binding was too weak to enable an accurate fit to be obtained.
BID peptide EC50 for affinity to MCL-1 (nM) Crosslinked Mcl-1 (%)
In the case of `CC[C@H](C)[C@H](NC(=O)[C@H](CC(N)=O)NC(=O)[C@H](CCCNC(=N)N)NC(=O)[C@@H](NC(=O)[C@@H](NC(=O)[C@H](CC(=O)O)NC(=O)[C@H](CCC(=O)O)NC(C)=O)[C@@H](C)CC)[C@@H](C)CC)C(=O)N[C@@H](C)C(=O)N[C@@H](CCCNC(=N)N)C(=O)N[C@@H](Cc1c[nH]cn1)C(=O)N[C@@H](CC(C)C)C(=O)N[C@@H](C)C(=O)N[C@@H](CCC(N)=O)C(=O)N[C@H](C(=O)NCC(=O)N[C@@H](CC(=O)O)C(=O)N[C@@H](CO)C(=O)N[C@@H](CCSC)C(=O)N[C@@H](CC(=O)O)C(=O)N[C@@H](CCCNC(=N)N)C(=O)N[C@@H](CO)C(=O)N[C@H](C(=O)N[C@@H](Cc1c[nH]c2ccccc12)C(N)=O)[C@@H](C)CC)C(C)C` [WT, reference compound], the “Crosslinked Mcl-1 (crosslinking efficiency)” value came out at 0%.

The assay is the same for the next values; noted with them: 20 μM labelled peptide + 20 μM MCL-1, TBS pH 7.6; 365 nm UV LED, 1 min; SDS-PAGE band intensity of crosslinked vs non-crosslinked MCL-1; value ± SD of three repeats; SD.
Turning to `CC[C@H](C)[C@H](NC(=O)[C@H](CC(N)=O)NC(=O)[C@H](CCCNC(=N)N)NC(=O)[C@H](CSSCc1ccc(C2(C(F)(F)F)N=N2)cc1)NC(=O)[C@@H](NC(=O)[C@H](CC(=O)O)NC(=O)[C@H](CCC(=O)O)NC(C)=O)[C@@H](C)CC)C(=O)N[C@@H](C)C(=O)N[C@@H](CCCNC(=N)N)C(=O)N[C@@H](Cc1c[nH]cn1)C(=O)N[C@@H](CC(C)C)C(=O)N[C@@H](C)C(=O)N[C@@H](CCC(N)=O)C(=O)N[C@H](C(=O)NCC(=O)N[C@@H](CC(=O)O)C(=O)N[C@@H](CO)C(=O)N[C@@H](CCSC)C(=O)N[C@@H](CC(=O)O)C(=O)N[C@@H](CCCNC(=N)N)C(=O)N[C@@H](CO)C(=O)N[C@H](C(=O)N[C@@H](Cc1c[nH]c2ccccc12)C(N)=O)[C@@H](C)CC)C(C)C` [MTS-TMFD labelled I83C] (Ac-EDIC(X1)RNIARHLAQVGDSMDRSIW-NH2), the “Crosslinked Mcl-1 (crosslinking efficiency)” value is on record as 51 ± 6%.

Consider `CC[C@H](C)[C@H](NC(=O)[C@H](CO)NC(=O)[C@H](CCCNC(=N)N)NC(=O)[C@H](CC(=O)O)NC(=O)[C@H](CCSC)NC(=O)[C@H](CO)NC(=O)[C@H](CC(=O)O)NC(=O)CNC(=O)[C@@H](NC(=O)[C@H](CCC(N)=O)NC(=O)[C@H](C)NC(=O)[C@H](CC(C)C)NC(=O)[C@H](Cc1c[nH]cn1)NC(=O)[C@H](CCCNC(=N)N)NC(=O)[C@H](C)NC(=O)[C@H](CSSCc1ccc(C2(C(F)(F)F)N=N2)cc1)NC(=O)[C@H](CC(N)=O)NC(=O)[C@H](CCCNC(=N)N)NC(=O)[C@@H](NC(=O)[C@@H](NC(=O)[C@H](CC(=O)O)NC(=O)[C@H](CCC(=O)O)NC(C)=O)[C@@H](C)CC)[C@@H](C)CC)C(C)C)C(=O)N[C@@H](Cc1c[nH]c2ccccc12)C(N)=O` [MTS-TMFD labelled I86C] (Ac-EDIIRNC(X1)ARHLAQVGDSMDRSIW-NH2), for which the “Crosslinked Mcl-1 (crosslinking efficiency)” value stood at 53 ± 1%.

For the compound `CC[C@H](C)[C@H](NC(=O)[C@H](CC(N)=O)NC(=O)[C@H](CCCNC(=N)N)NC(=O)[C@@H](NC(=O)[C@@H](NC(=O)[C@H](CC(=O)O)NC(=O)[C@H](CCC(=O)O)NC(C)=O)[C@@H](C)CC)[C@@H](C)CC)C(=O)N[C@@H](C)C(=O)N[C@@H](CCCNC(=N)N)C(=O)N[C@@H](Cc1c[nH]cn1)C(=O)N[C@@H](CC(C)C)C(=O)N[C@@H](C)C(=O)N[C@@H](CCC(N)=O)C(=O)N[C@H](C(=O)NCC(=O)N[C@@H](CC(=O)O)C(=O)N[C@@H](CO)C(=O)N[C@@H](CSSCc1ccc(C2(C(F)(F)F)N=N2)cc1)C(=O)N[C@@H](CC(=O)O)C(=O)N[C@@H](CCCNC(=N)N)C(=O)N[C@@H](CO)C(=O)N[C@H](C(=O)N[C@@H](Cc1c[nH]c2ccccc12)C(N)=O)[C@@H](C)CC)C(C)C` [MTS-TMFD labelled M97C] (Ac-EDIIRNIARHLAQVGDSC(X1)DRSIW-NH2), the “Crosslinked Mcl-1 (crosslinking efficiency)” value was determined as 26 ± 1%.

As to `CC[C@H](C)[C@H](NC(=O)[C@H](CC(N)=O)NC(=O)[C@H](CCCNC(=N)N)NC(=O)[C@@H](NC(=O)[C@@H](NC(=O)[C@H](CC(=O)O)NC(=O)[C@H](CCC(=O)O)NC(C)=O)[C@@H](C)CC)[C@@H](C)CC)C(=O)N[C@@H](C)C(=O)N[C@@H](CCCNC(=N)N)C(=O)N[C@@H](Cc1c[nH]cn1)C(=O)N[C@@H](CC(C)C)C(=O)N[C@@H](C)C(=O)N[C@@H](CCC(N)=O)C(=O)N[C@H](C(=O)NCC(=O)N[C@@H](CC(=O)O)C(=O)N[C@@H](CO)C(=O)N[C@@H](CCSC)C(=O)N[C@@H](CC(=O)O)C(=O)N[C@@H](CCCNC(=N)N)C(=O)N[C@@H](CSSCc1ccc(C2(C(F)(F)F)N=N2)cc1)C(=O)N[C@H](C(=O)N[C@@H](Cc1c[nH]c2ccccc12)C(N)=O)[C@@H](C)CC)C(C)C` [MTS-TMFD labelled S100C], the “Crosslinked Mcl-1 (crosslinking efficiency)” value worked out at 31 ± 3%.

As to `CC[C@H](C)[C@H](NC(=O)[C@H](CC(N)=O)NC(=O)[C@H](CCCNC(=N)N)NC(=O)[C@H](CSSCCC1(C)N=N1)NC(=O)[C@@H](NC(=O)[C@H](CC(=O)O)NC(=O)[C@H](CCC(=O)O)NC(C)=O)[C@@H](C)CC)C(=O)N[C@@H](C)C(=O)N[C@@H](CCCNC(=N)N)C(=O)N[C@@H](Cc1c[nH]cn1)C(=O)N[C@@H](CC(C)C)C(=O)N[C@@H](C)C(=O)N[C@@H](CCC(N)=O)C(=O)N[C@H](C(=O)NCC(=O)N[C@@H](CC(=O)O)C(=O)N[C@@H](CO)C(=O)N[C@@H](CCSC)C(=O)N[C@@H](CC(=O)O)C(=O)N[C@@H](CCCNC(=N)N)C(=O)N[C@@H](CO)C(=O)N[C@H](C(=O)N[C@@H](Cc1c[nH]c2ccccc12)C(N)=O)[C@@H](C)CC)C(C)C` [MTS-diazirine labelled I83C] (Ac-EDIC(X2)RNIARHLAQVGDSMDRSIW-NH2), the “Crosslinked Mcl-1 (crosslinking efficiency)” value turned out to be 19 ± 2%.

For `CC[C@H](C)[C@H](NC(=O)[C@H](CO)NC(=O)[C@H](CCCNC(=N)N)NC(=O)[C@H](CC(=O)O)NC(=O)[C@H](CCSC)NC(=O)[C@H](CO)NC(=O)[C@H](CC(=O)O)NC(=O)CNC(=O)[C@@H](NC(=O)[C@H](CCC(N)=O)NC(=O)[C@H](C)NC(=O)[C@H](CC(C)C)NC(=O)[C@H](Cc1c[nH]cn1)NC(=O)[C@H](CCCNC(=N)N)NC(=O)[C@H](C)NC(=O)[C@H](CSSCCC1(C)N=N1)NC(=O)[C@H](CC(N)=O)NC(=O)[C@H](CCCNC(=N)N)NC(=O)[C@@H](NC(=O)[C@@H](NC(=O)[C@H](CC(=O)O)NC(=O)[C@H](CCC(=O)O)NC(C)=O)[C@@H](C)CC)[C@@H](C)CC)C(C)C)C(=O)N[C@@H](Cc1c[nH]c2ccccc12)C(N)=O` [MTS-diazirine labelled I86C] (Ac-EDIIRNC(X2)ARHLAQVGDSMDRSIW-NH2), the “Crosslinked Mcl-1 (crosslinking efficiency)” value was 16 ± 2%.

Consider `CC[C@H](C)[C@H](NC(=O)[C@H](CC(N)=O)NC(=O)[C@H](CCCNC(=N)N)NC(=O)[C@@H](NC(=O)[C@@H](NC(=O)[C@H](CC(=O)O)NC(=O)[C@H](CCC(=O)O)NC(C)=O)[C@@H](C)CC)[C@@H](C)CC)C(=O)N[C@@H](C)C(=O)N[C@@H](CCCNC(=N)N)C(=O)N[C@@H](Cc1c[nH]cn1)C(=O)N[C@@H](CC(C)C)C(=O)N[C@@H](C)C(=O)N[C@@H](CCC(N)=O)C(=O)N[C@H](C(=O)NCC(=O)N[C@@H](CC(=O)O)C(=O)N[C@@H](CO)C(=O)N[C@@H](CSSCCC1(C)N=N1)C(=O)N[C@@H](CC(=O)O)C(=O)N[C@@H](CCCNC(=N)N)C(=O)N[C@@H](CO)C(=O)N[C@H](C(=O)N[C@@H](Cc1c[nH]c2ccccc12)C(N)=O)[C@@H](C)CC)C(C)C` [MTS-diazirine labelled M97C] (Ac-EDIIRNIARHLAQVGDSC(X2)DRSIW-NH2), for which the “Crosslinked Mcl-1 (crosslinking efficiency)” value is 41 ± 6%.

In the case of `CC[C@H](C)[C@H](NC(=O)[C@H](CC(N)=O)NC(=O)[C@H](CCCNC(=N)N)NC(=O)[C@@H](NC(=O)[C@@H](NC(=O)[C@H](CC(=O)O)NC(=O)[C@H](CCC(=O)O)NC(C)=O)[C@@H](C)CC)[C@@H](C)CC)C(=O)N[C@@H](C)C(=O)N[C@@H](CCCNC(=N)N)C(=O)N[C@@H](Cc1c[nH]cn1)C(=O)N[C@@H](CC(C)C)C(=O)N[C@@H](C)C(=O)N[C@@H](CCC(N)=O)C(=O)N[C@@H](CSSCCC1(C)N=N1)C(=O)NCC(=O)N[C@@H](CC(=O)O)C(=O)N[C@@H](CO)C(=O)N[C@@H](CCSC)C(=O)N[C@@H](CC(=O)O)C(=O)N[C@@H](CCCNC(=N)N)C(=O)N[C@@H](CO)C(=O)N[C@H](C(=O)N[C@@H](Cc1c[nH]c2ccccc12)C(N)=O)[C@@H](C)CC` [MTS-diazirine labelled V93C] (Ac-EDIIRNIARHLAQC(X2)GDSMDRSIW-NH2), the “Crosslinked Mcl-1 (crosslinking efficiency)” value came out at 9 ± 3%.

“MTS-TMFD labelled V93C: single Cys variant V93C of BID80–102 tagged with MTS-TFMD (EDIIRNIARHLAQC(MTS‑TFMD)GDSMDRSIP; UniProt P55957 80-102, looked up, fragment V93C)”: the “Crosslinked Mcl-1 (crosslinking efficiency)” value is 40 ± 8%.

(Values after PMC6348423, “Rapid Mapping of Protein Interactions Using Tag‐Transfer Photocrosslinkers” (Angewandte Chemie (International Ed. in English), 2018).)
